Converted amounts (≈) assume the structure as drawn. Where a SMILES comes first, the peptide text is derived from it.
How the values were obtained:
[1] = Therapeutic index, ratio of MHC for human RBC to geometric mean of peptide MIC for Streptococcus agalactiae H92; format: toxicity; settings: human red blood cells (RBC), read-out: TI
[2] = Therapeutic index, ratio of MHC for human RBC to geometric mean of peptide MIC for Staphylococcus epidermidis ATCC 12228; format: toxicity; settings: human red blood cells (RBC), read-out: TI
[3] = Therapeutic index, ratio of MHC for human RBC to geometric mean of peptide MIC for methicillin-resistant Staphylococcus aureus 43300; format: toxicity; settings: human red blood cells (RBC), read-out: TI
[4] = Therapeutic index, ratio of MHC for human RBC to geometric mean of peptide MIC for Enterococcus faecalis ATCC 29212; format: toxicity; settings: human red blood cells (RBC), read-out: TI
[5] = Therapeutic index, ratio of MHC for human RBC to geometric mean of peptide MIC for Staphylococcus aureus ATCC 29213; format: toxicity; settings: human red blood cells (RBC), read-out: TI
[6] = Therapeutic index, ratio of MHC for human RBC to geometric mean of peptide MIC for Staphylococcus aureus 11011; format: toxicity; settings: human red blood cells (RBC), read-out: TI
[7] = Therapeutic index, ratio of MHC for human RBC to geometric mean of peptide MIC for Salmonella pullorum 7913; format: toxicity; settings: human red blood cells (RBC), read-out: TI
[8] = Therapeutic index, ratio of MHC for human RBC to geometric mean of peptide MIC for Salmonella typhimurium 7731; format: toxicity; settings: human red blood cells (RBC), read-out: TI
[9] = Therapeutic index, ratio of MHC for human RBC to geometric mean of peptide MIC for Salmonella choleraesuis 503; format: toxicity; settings: human red blood cells (RBC), read-out: TI
[10] = Therapeutic index, ratio of MHC for human RBC to geometric mean of peptide MIC for Escherichia coli UB1005; format: toxicity; settings: human red blood cells (RBC), read-out: TI
[11] = Therapeutic index, ratio of MHC for human RBC to geometric mean of peptide MIC for Salmonella typhimurium 14028; format: toxicity; settings: human red blood cells (RBC), read-out: TI
[12] = Therapeutic index, ratio of MHC for human RBC to geometric mean of peptide MIC for Escherichia coli ATCC 25922; format: toxicity; settings: human red blood cells (RBC), read-out: TI
Staphylococcus aureus [13] = test: Antibacterial activity against Staphylococcus aureus ATCC 29213 after 18 to 24 hrs by CLSI-based broth microdilution method; format: functional; settings: time hrs 18-24
Staphylococcus aureus [14] = test: Antibacterial activity against Staphylococcus aureus 11011 after 18 to 24 hrs by CLSI-based broth microdilution method; format: functional; settings: time hrs 18-24
Escherichia coli [15] = test: Antibacterial activity against Escherichia coli ATCC 25922 after 18 to 24 hrs by CLSI-based broth microdilution method; format: functional; settings: time hrs 18-24
Escherichia coli [16] = test: Antibacterial activity against Escherichia coli UB1005 after 18 to 24 hrs by CLSI-based broth microdilution method; format: functional; settings: time hrs 18-24
Salmonella typhimurium [17] = test: Antibacterial activity against Salmonella typhimurium 14028 after 18 to 24 hrs by CLSI-based broth microdilution method; format: functional, Salmonella enterica subsp. enterica serovar Typhimurium; settings: Salmonella enterica, time hrs 18-24
Salmonella typhimurium [18] = test: Antibacterial activity against Salmonella typhimurium 7731 after 18 to 24 hrs by CLSI-based broth microdilution method; format: functional, Salmonella enterica subsp. enterica serovar Typhimurium; settings: Salmonella enterica, time hrs 18-24
[19] = Antibacterial activity against Salmonella pullorum 7913 after 18 to 24 hrs by CLSI-based broth microdilution method; format: functional, Salmonella enterica subsp. enterica serovar Pullorum; settings: Salmonella enterica, time hrs 18-24
Salmonella enterica = test: Antibacterial activity against Salmonella choleraesuis 503 after 18 to 24 hrs by CLSI-based broth microdilution method; format: functional; settings: time hrs 18-24
[20] = system: Staphylococcus epidermidis; test: Antibacterial activity against Staphylococcus epidermidis ATCC 12228 after 18 to 24 hrs by CLSI-based broth microdilution method; format: functional; settings: time hrs 18-24
Enterococcus faecalis = test: Antibacterial activity against Enterococcus faecalis ATCC 29212 after 18 to 24 hrs by CLSI-based broth microdilution method; format: functional; settings: time hrs 18-24
Staphylococcus aureus [21] = test: Antibacterial activity against methicillin-resistant Staphylococcus aureus 43300 after 18 to 24 hrs by CLSI-based broth microdilution method; format: functional; settings: time hrs 18-24
Streptococcus agalactiae = test: Antibacterial activity against Streptococcus agalactiae H92 after 18 to 24 hrs by CLSI-based broth microdilution method; format: functional; settings: time hrs 18-24
Erythrocyte = test: Hemolytic activity in human RBC assessed as hemolysis; format: ADME, cell-based
[22] = Hemolytic activity in human RBC assessed as hemolysis at 1 to 128 uM relative to control; format: ADME, cell-based, Erythrocyte; settings: human red blood cells (RBC), dose 1-128 µM, read-out: Activity
[23] = Cytotoxicity against mouse RAW264.7 cells assessed as cell viability at 128 uM by MTT assay relative to control; format: cell-based; settings: read-out: Activity
[24] = Cytotoxicity against HEK-293T cells assessed as cell viability at 128 uM by MTT assay relative to control; format: cell-based; settings: human, read-out: Activity

SMILES | selectivity ratio [1] | selectivity ratio [2] | selectivity ratio [3] | selectivity ratio [4] | selectivity ratio [5] | selectivity ratio [6] | selectivity ratio [7] | selectivity ratio [8] | selectivity ratio [9] | selectivity ratio [10] | selectivity ratio [11] | selectivity ratio [12] | MIC (Staphylococcus aureus [13]) | MIC (Staphylococcus aureus [14]) | MIC (Escherichia coli [15]) | MIC (Escherichia coli [16]) | MIC (Salmonella typhimurium [17]) | MIC (Salmonella typhimurium [18]) | MIC [19] | MIC (Salmonella enterica) | other results
CC[C@H](C)[C@H](N)C(=O)N[C@H](C(=O)N[C@H](C(=O)N[C@@H](CS)C(=O)N[C@@H](CCCNC(=N)N)C(=O)N[C@@H](CCCCN)C(=O)N1CCC[C@H]1C(=O)N[C@H](C(=O)N[C@H](C(=O)N[C@@H](CS)C(=O)N[C@@H](CCCNC(=N)N)C(=O)N[C@@H](CCCCN)C(=O)N1CCC[C@H]1C(=O)N[C@H](C(=O)N[C@H](C(=O)N[C@@H](CS)C(=O)N[C@@H](CCCNC(=N)N)C(=O)N[C@@H](CCCCN)C(=O)N1CCC[C@H]1C(=O)N[C@H](C(=O)N[C@H](C(=O)N[C@@H](CS)C(=O)N[C@@H](CCCNC(=N)N)C(=O)N[C@@H](CCCCN)C(=O)N1CCC[C@H]1C(=O)N[C@H](C(=O)N[C@H](C(=O)N[C@@H](CS)C(=O)N[C@@H](CCCNC(=N)N)C(=O)N[C@@H](CCCCN)C(=O)N1CCC[C@H]1C(=O)N[C@H](C(=O)N[C@H](C(=O)N[C@H](C(N)=O)[C@@H](C)CC)[C@@H](C)CC)[C@@H](C)CC)[C@@H](C)CC)[C@@H](C)CC)[C@@H](C)CC)[C@@H](C)CC)[C@@H](C)CC)[C@@H](C)CC)[C@@H](C)CC)[C@@H](C)CC)[C@@H](C)CC)[C@@H](C)CC (H-IIICRKPIICRKPIICRKPIICRKPIICRKPIII-NH2) | 2 | 2 | 2 | 2 | 2 | 2 | 32 | 32 | 32 | 32 | 32 | 32 | > 64 µM | > 64 µM | 4 µM (≈ 16.1 µg/mL) | 2 µM (≈ 8.05 µg/mL) | 4 µM (≈ 16.1 µg/mL) | 4 µM (≈ 16.1 µg/mL) | 8 µM (≈ 32.2 µg/mL) | 4 µM (≈ 16.1 µg/mL) | MIC [20]: > 64 µM; MIC (Enterococcus faecalis): > 64 µM; MIC (Staphylococcus aureus [21]): > 64 µM; MIC (Streptococcus agalactiae): > 64 µM; MHC (Erythrocyte): > 128 µM; hemolysis at up to 128 µM [22]: < 5%; viability at 128 µM [23]: > 90%; viability at 128 µM [24]: > 90%
CC[C@H](C)[C@H](N)C(=O)N[C@H](C(=O)N[C@H](C(=O)N[C@@H](CS)C(=O)N[C@@H](CCCNC(=N)N)C(=O)N[C@@H](CCCCN)C(=O)N1CCC[C@H]1C(=O)N[C@H](C(=O)N[C@H](C(=O)N[C@@H](CS)C(=O)N[C@@H](CCCNC(=N)N)C(=O)N[C@@H](CCCCN)C(=O)N1CCC[C@H]1C(=O)N[C@H](C(=O)N[C@H](C(=O)N[C@@H](CS)C(=O)N[C@@H](CCCNC(=N)N)C(=O)N[C@@H](CCCCN)C(=O)N1CCC[C@H]1C(=O)N[C@H](C(=O)N[C@H](C(=O)N[C@H](C(N)=O)[C@@H](C)CC)[C@@H](C)CC)[C@@H](C)CC)[C@@H](C)CC)[C@@H](C)CC)[C@@H](C)CC)[C@@H](C)CC)[C@@H](C)CC)[C@@H](C)CC (H-IIICRKPIICRKPIICRKPIII-NH2) | 2.52 | 2.52 | 2.52 | 2.52 | 2.52 | 2.52 | 16 | 16 | 16 | 16 | 16 | 16 | > 64 µM | > 64 µM | 4 µM (≈ 10.4 µg/mL) | 4 µM (≈ 10.4 µg/mL) | 8 µM (≈ 20.8 µg/mL) | 8 µM (≈ 20.8 µg/mL) | 16 µM (≈ 41.6 µg/mL) | 16 µM (≈ 41.6 µg/mL) | MIC [20]: > 64 µM; MIC (Enterococcus faecalis): > 64 µM; MIC (Staphylococcus aureus [21]): > 64 µM; MIC (Streptococcus agalactiae): 16 µM (≈ 41.6 µg/mL); MHC (Erythrocyte): > 128 µM; hemolysis at up to 128 µM [22]: < 5%; viability at 128 µM [23]: > 90%; viability at 128 µM [24]: > 90%
CC[C@H](C)[C@H](N)C(=O)N[C@H](C(=O)N[C@H](C(=O)N[C@@H](CS)C(=O)N[C@@H](CCCNC(=N)N)C(=O)N[C@@H](CCCCN)C(=O)N1CCC[C@H]1C(=O)N[C@H](C(=O)N[C@H](C(=O)N[C@@H](CS)C(=O)N[C@@H](CCCNC(=N)N)C(=O)N[C@@H](CCCCN)C(=O)N1CCC[C@H]1C(=O)N[C@H](C(=O)N[C@H](C(=O)N[C@H](C(N)=O)[C@@H](C)CC)[C@@H](C)CC)[C@@H](C)CC)[C@@H](C)CC)[C@@H](C)CC)[C@@H](C)CC)[C@@H](C)CC (H-IIICRKPIICRKPIII-NH2) | 2 | 2 | 2 | 2 | 2 | 2 | 6.35 | 6.35 | 6.35 | 6.35 | 6.35 | 6.35 | > 64 µM | > 64 µM | 8 µM (≈ 15.1 µg/mL) | 8 µM (≈ 15.1 µg/mL) | 32 µM (≈ 60.5 µg/mL) | 32 µM (≈ 60.5 µg/mL) | 32 µM (≈ 60.5 µg/mL) | 32 µM (≈ 60.5 µg/mL) | MIC [20]: > 64 µM; MIC (Enterococcus faecalis): > 64 µM; MIC (Staphylococcus aureus [21]): > 64 µM; MIC (Streptococcus agalactiae): 64 µM (≈ 121 µg/mL); MHC (Erythrocyte): > 128 µM; hemolysis at up to 128 µM [22]: < 5%; viability at 128 µM [23]: > 90%; viability at 128 µM [24]: > 90%
CC(C)[C@H](N)C(=O)N[C@@H](CS)C(=O)N[C@@H](CCCNC(=N)N)C(=O)N[C@@H](CCCCN)C(=O)N1CCC[C@H]1C(=O)N[C@H](C(=O)N[C@H](C(=O)N[C@@H](CS)C(=O)N[C@@H](CCCNC(=N)N)C(=O)N[C@@H](CCCCN)C(=O)N1CCC[C@H]1C(=O)N[C@H](C(N)=O)C(C)C)C(C)C)C(C)C (H-VCRKPVVCRKPV-NH2) | 2 | 2 | 2 | 2 | 2 | 2 | 2 | 2 | 2 | 2 | 2 | 2 | > 64 µM | > 64 µM | > 64 µM | > 64 µM | > 64 µM | > 64 µM | > 64 µM | > 64 µM | MIC [20]: > 64 µM; MIC (Enterococcus faecalis): > 64 µM; MIC (Staphylococcus aureus [21]): > 64 µM; MIC (Streptococcus agalactiae): > 64 µM; MHC (Erythrocyte): > 128 µM; hemolysis at up to 128 µM [22]: < 5%; viability at 128 µM [23]: > 90%; viability at 128 µM [24]: > 90%
CC(C)[C@H](N)C(=O)N[C@@H](CS)C(=O)N[C@@H](CCCNC(=N)N)C(=O)N[C@@H](CCCCN)C(=O)N1CCC[C@H]1C(=O)N[C@H](C(=O)N[C@H](C(=O)N[C@@H](CS)C(=O)N[C@@H](CCCNC(=N)N)C(=O)N[C@@H](CCCCN)C(=O)N1CCC[C@H]1C(=O)N[C@H](C(=O)N[C@H](C(=O)N[C@@H](CS)C(=O)N[C@@H](CCCNC(=N)N)C(=O)N[C@@H](CCCCN)C(=O)N1CCC[C@H]1C(=O)N[C@H](C(N)=O)C(C)C)C(C)C)C(C)C)C(C)C)C(C)C (H-VCRKPVVCRKPVVCRKPV-NH2) | 2 | 2 | 2 | 2 | 2 | 2 | 6.35 | 6.35 | 6.35 | 6.35 | 6.35 | 6.35 | > 64 µM | > 64 µM | 8 µM (≈ 16.5 µg/mL) | 16 µM (≈ 33.1 µg/mL) | 8 µM (≈ 16.5 µg/mL) | 16 µM (≈ 33.1 µg/mL) | > 64 µM | > 64 µM | MIC [20]: > 64 µM; MIC (Enterococcus faecalis): > 64 µM; MIC (Staphylococcus aureus [21]): > 64 µM; MIC (Streptococcus agalactiae): > 64 µM; MHC (Erythrocyte): > 128 µM; hemolysis at up to 128 µM [22]: < 5%; viability at 128 µM [23]: > 90%; viability at 128 µM [24]: > 90%
